Assays:
[1] = inhaled; cited from earlier work
[2] = system: intestinal transit across the proximal gut; experiment: Intestinal transit in dogs with duodenal and midgut fistulas; type: in vivo; conditions: last 30 min of 90-min perfusion, mean±SE, buffer control 53.77±5.96%
Procedure: The inventor determined the effect of hydrogen sulfide on intestinal transit. Five dogs were equipped with duodenal and midgut fistulas. With occluding Foley catheters in the distal limb of the 2 fistulas, the small intestine was compartmentalized into the proximal and distal ½ of the gut. The proximal gut was perfused with pH 7.0 phosphate buffer with 0 or 1 mM NaHS (a donor of H2S) at 2 ml/min while the distal gut was perfused with pH 7.0 phosphate buffer with 0 or 60 mM oleate at 2 ml/min for 90 minutes. 60 mM oleate was used to trigger the ileal brake response to slow intestinal transit. Intestinal transit across the proximal gut was measured by the cumulative % recovery of a radioactive marker out of the midgut fistula during the last 30 min of the 90-min perfusion (data=mean±SE).

[3] = single patient with HPS, enhanced oxygenation; cited from earlier work
[4] = rat model of HPS, chronic bile duct ligation; cited from earlier work
[5] = system: gut bacteria; conditions: Norfloxacin treatment; cited from earlier work
[6] = 100 patients, mild to moderate AD, doxycycline and rifampin together; cited from earlier work
[7] = system: SIBO; conditions: about 400 mg TID for about 10 days; cited from earlier work

SMILES: S [Hydrogen sulfide]
- level that can be fatal (respiratory failure and pulmonary edema) [1]: > 600 ppm
- Intestinal transit: cumulative % recovery of a radioactive marker out of the midgut fistula ([2]; H2S perfused in distal compartment): 60.72±8.97%
- Intestinal transit: cumulative % recovery of a radioactive marker out of the midgut fistula ([2]; H2S perfused in proximal compartment (1 mM NaHS, pH 7.0 phosphate buffer, 2 ml/min)): 37.78±3.80%

SMILES: COC(=O)[C@@H](N)CCCNC(=N)N[N+](=O)[O-] [L-NAME, nomega-nitro-L-arginine methylester]
- extra walking distance [3]: 92 M
- hypoxia [4]: improved but did not correct hypoxia

SMILES: CCn1cc(C(=O)O)c(=O)c2cc(F)c(N3CCNCC3)cc21 [Norfloxacin]
- iNOS expression [5]: normalized
- severity of intrapulmonary vascular dilatation, reduction [5]: about ½

SMILES: CCCCCCCC/C=C\CCCCCCCC(=O)O [fat, oleate]
- Intestinal transit: cumulative % recovery of a radioactive marker out of the midgut fistula ([2]; fat (60 mM oleate) in distal 1/2 of gut, ileal brake): 16.00±3.92%

SMILES: CO[C@H]1/C=C/O[C@@]2(C)Oc3c(C)c(O)c4c(O)c(c(/C=N/N5CCN(C)CC5)c(O)c4c3C2=O)NC(=O)/C(C)=C\C=C\[C@H](C)[C@H](O)[C@@H](C)[C@@H](O)[C@@H](C)[C@H](OC(C)=O)[C@@H]1C [rifampin]
- cognitive worsening [6]: reduce cognitive worsening

SMILES: CO[C@H]1/C=C/O[C@@]2(C)Oc3c(C)c(O)c4c(O)c(c5c(nc6cc(C)ccn65)c4c3C2=O)NC(=O)/C(C)=C\C=C\[C@H](C)[C@H](O)[C@@H](C)[C@@H](O)[C@@H](C)[C@H](OC(C)=O)[C@@H]1C [rifaximin]
- efficacy in achieving successful partial eradication of SIBO [7]: 60-70%

From patent US20090233888A1, “TREATMENT OF DISEASE CONDITIONS THROUGH MODULATION OF HYDROGEN SULFIDE PRODUCED BY SMALL INTESTINAL BACTERIAL OVERGROWTH” (priority 2005, published 2009)
